Active and inactive are the calls of the source. No cut-off for these calls is given here.
Columns and labels:
[1] = Selectivity index, ratio of IC50 for human NCM460 cells to IC50 for human HT-29 cells; format: toxicity; settings: NCM460 cells versus HT-29 cells, read-out: Ratio IC50
[2] = tested on: U2OS; assay: Cytotoxicity against human U2OS cells assessed as reduction in cell viability incubated for 48 hrs by MTT assay; format: functional, cell-based
[3] = tested on: MDA-MB-231; assay: Cytotoxicity against human MDA-MB-231 cells assessed as reduction in cell viability incubated for 48 hrs by MTT assay; format: functional, cell-based; settings: MDA-MB-231, 48 h
[4] = tested on: HCT-116; assay: Cytotoxicity against human HCT-116 cells assessed as reduction in cell viability incubated for 48 hrs by MTT assay; format: functional, cell-based; settings: HCT-116, 48 h
[5] = tested on: HepG2; assay: Cytotoxicity against human HepG2 cells assessed as reduction in cell viability incubated for 48 hrs by MTT assay; format: functional, cell-based; settings: HepG2, 48 h
[6] = tested on: SW480; assay: Cytotoxicity against human SW480 cells assessed as reduction in cell viability incubated for 48 hrs by MTT assay; format: functional, cell-based; settings: SW480, 48 h
[7] = Selectivity index, ratio of IC50 for human NCM460 cells to IC50 for human SW480 cells
[8] = tested on: NCM460; assay: Cytotoxicity against human NCM460 cells assessed as reduction in cell viability incubated for 48 hrs by MTT assay; format: cell-based; settings: NCM460, 48 h
[9] = tested on: HT-29; assay: Cytotoxicity against human HT-29 cells assessed as reduction in cell viability incubated for 48 hrs by MTT assay; format: functional, cell-based; settings: HT-29, 48 h
[10] = tested on: A549; assay: cells; settings: Homo sapiens, A549, 48 h
[11] = target: Pyruvate kinase PKM (Homo sapiens, UniProt P14618); assay: Activation of recombinant human PKM2 at 10 uM incubated 30 mins by fluorescence microplate reader analysis; settings: filed as activator
Chain of Pyruvate kinase PKM (P14618 2-531 limits assumed): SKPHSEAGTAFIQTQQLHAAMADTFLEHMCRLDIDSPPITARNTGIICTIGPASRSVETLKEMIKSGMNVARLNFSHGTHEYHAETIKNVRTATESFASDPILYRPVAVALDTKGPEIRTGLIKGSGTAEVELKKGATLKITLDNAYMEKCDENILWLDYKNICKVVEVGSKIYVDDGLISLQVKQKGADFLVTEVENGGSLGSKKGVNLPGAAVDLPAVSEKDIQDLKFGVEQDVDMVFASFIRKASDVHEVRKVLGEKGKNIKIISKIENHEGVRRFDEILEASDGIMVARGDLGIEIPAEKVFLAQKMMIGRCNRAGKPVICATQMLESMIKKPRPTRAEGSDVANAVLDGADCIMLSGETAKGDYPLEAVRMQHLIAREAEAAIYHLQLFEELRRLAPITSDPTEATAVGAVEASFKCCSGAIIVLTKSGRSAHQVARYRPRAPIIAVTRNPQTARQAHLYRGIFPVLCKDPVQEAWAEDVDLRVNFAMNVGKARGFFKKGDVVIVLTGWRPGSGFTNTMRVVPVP

Row | Compound | selectivity ratio [1] | IC50 [2] [µM] | IC50 [3] [µM] | IC50 [4] [µM] | IC50 [5] [µM] | IC50 [6] [µM] | Ratio IC50 [7] | IC50 [8] [µM] | IC50 [9] [µM] | IC50 [10] [µM] | Activity [11]
1 | C=C1C(=O)O[C@@H]2C3O[C@]3(C)CC/C=C(\C)CC[C@@H]12 (stereo not given in full) | 0.38 | 7 | 8.68 | 8.12 | 26.1 | 3.56 | 0.78 | 2.78 | 7.41 | 10.3 | 
2 | C=C1C(=O)O[C@H]2[C@H]1CC/C(COC(=O)c1ccc3ncccc3c1)=C/CC[C@@]1(C)O[C@@H]21 |  | 3.11 | 1.99 | 1.6 | 6.6 | 0.29 |  |  | 1.33 | 3.18 | Active
3 | C=C1C(=O)O[C@H]2[C@H]1CC/C(COC(=O)Cc1ccc3ncccc3c1)=C/CC[C@@]1(C)O[C@@H]21 |  | 6.62 | 4.13 | 1.79 | 5.9 | 1.8 |  |  | 1.4 | 2.76 | 
4 | C/C1=C\CC[C@@]2(C)O[C@H]2[C@H]2OC(=O)C(CN3CCN(C(=O)c4ccc5ccccc5n4)CC3)[C@@H]2CC1 (stereo not given in full) |  | 23.5 | 87 | 64.3 | 69.5 | 23.1 |  |  | 54.4 | 60.1 | 
5 | Cn1c2cc([S+](C)[O-])sc2c2cnn(Cc3cccc(N)c3)c(=O)c21 (stereo not given) |  | > 100 | > 100 | 89.9 | > 100 | 93 |  |  | > 100 | > 100 | 
6 | C=C1C(=O)O[C@H]2[C@H]1CC/C(COC(=O)c1cccc3cccnc13)=C/CC[C@@]1(C)O[C@@H]21 |  | 3.54 | 2.2 | 4.12 | 8.76 | 0.49 |  |  | 2.65 | 2.65 | 
7 | C=C1C(=O)O[C@H]2[C@H]1CC/C(COC(=O)c1ccc3nc(O)ccc3c1)=C/CC[C@@]1(C)O[C@@H]21 |  | 7.62 | 5.1 | 2.25 | 10.6 | 0.73 |  |  | 1.72 | 5.12 | 
8 | C/C1=C\CC[C@@]2(C)O[C@H]2[C@H]2OC(=O)/C(=C\c3ccc4nccnc4c3)[C@@H]2CC1 |  | 3 | 7.59 | 4.38 | 13.8 | 3.51 |  |  | 358 | 9.18 | 
9 | C=C1C(=O)O[C@H]2[C@H]1CC/C(COC(=O)c1cnc3ccccc3c1)=C/CC[C@@]1(C)O[C@@H]21 |  | 2.58 | 2.27 | 2.7 | 9.53 | 0.33 |  |  | 2.43 | 2.45 | 
10 | C=C1C(=O)O[C@H]2[C@H]1CC/C(COC(=O)c1ccc3cccnc3c1)=C/CC[C@@]1(C)O[C@@H]21 |  | 1.3 | 1.75 | 3.13 | 9.84 | 0.33 |  |  | 2.8 | 2.95 | 
11 | C/C1=C\CC[C@@]2(C)O[C@H]2[C@H]2OC(=O)/C(=C\c3ccc4ncncc4c3)[C@@H]2CC1 |  | 72 | > 100 | 87.7 | > 100 | 51.6 |  |  | > 100 | 40.2 | 
12 | C=C1C(=O)O[C@H]2[C@H]1CC/C(COC(=O)c1ccc3cnccc3c1)=C/CC[C@@]1(C)O[C@@H]21 |  | 2.58 | 2.27 | 2.7 | 9.52 | 1.33 |  |  | 2.43 | 2.45 | 
13 | C=C1C(=O)O[C@H]2[C@H]1CC/C(COC(=O)c1ccc3ccccc3c1)=C/CC[C@@]1(C)O[C@@H]21 |  | 3.58 | 3.34 | 3.05 | 8.15 | 2.25 |  |  | 2.8 | 3.49 | 

— ChEMBL document CHEMBL4831557, “Parthenolide Derivatives as PKM2 Activators Showing Potential in Colorectal Cancer” (J Med Chem, 2021)
